Patent US20190265319A1, “SYSTEM AND METHOD FOR SMALL MOLECULE ACCURATE RECOGNITION TECHNOLOGY ("SMART")” (THE REGENTS OF THE UNIVERSITY OF CALIFORNIA, priority 2016, published 2019)
Peptide text beside a SMILES is read from it.

The molecules below were run on H-460 human lung cancer cells. Conditions: not given.
Assay type: cell-based
In the case of viequeamide X, the H-460 cytotoxicity is reported as “no appreciable H-460 cytotoxicity”. `C#CCCC[C@@H]1OC(=O)[C@H](C(C)C)NC(=O)[C@H](C)N(C)C(=O)[C@@H]2CCCN2C(=O)[C@H](Cc2ccccc2)OC(=O)[C@H](C(C)C)N(C)C(=O)[C@H](C(C)C)NC(=O)C1(C)C` [viequeamide B] (HELM PEPTIDE1{V.[meV].[O=C([C@H](Cc1ccccc1)O[*:1])[*:2]].P.[meA].V}|CHEM1{[C#CCCC[C@H](O[*:2])C(C)(C)C(=O)[*:1]]}$PEPTIDE1,CHEM1,1:R1-1:R1|PEPTIDE1,CHEM1,6:R2-1:R2$$$V2.0) was tested, and the H-460 cytotoxicity was “no appreciable H-460 cytotoxicity”. In the case of viequeamide H, the H-460 cytotoxicity is reported as “no appreciable H-460 cytotoxicity”. `CCCCC[C@@H]1OC(=O)[C@H](C(C)C)NC(=O)[C@H](C)N(C)C(=O)[C@@H]2CCCN2C(=O)[C@H](Cc2ccccc2)OC(=O)[C@H](C(C)C)N(C)C(=O)[C@H](C(C)C)NC(=O)C1(C)C` [viequeamide D] (HELM PEPTIDE1{V.[meV].[O=C([C@H](Cc1ccccc1)O[*:1])[*:2]].P.[meA].V}|CHEM1{[CCCCC[C@H](O[*:2])C(C)(C)C(=O)[*:1]]}$PEPTIDE1,CHEM1,1:R1-1:R1|PEPTIDE1,CHEM1,6:R2-1:R2$$$V2.0) was tested, and the H-460 cytotoxicity was “no appreciable H-460 cytotoxicity”. viequeamide G was tested, and the H-460 cytotoxicity was “no appreciable H-460 cytotoxicity”. In the case of `C=CCCC[C@@H]1OC(=O)[C@H](C(C)C)NC(=O)[C@H](C)N(C)C(=O)[C@@H]2CCCN2C(=O)[C@H](Cc2ccccc2)OC(=O)[C@H](C(C)C)N(C)C(=O)[C@H](C(C)C)NC(=O)C1(C)C` [viequeamide C] (HELM PEPTIDE1{V.[meV].[O=C([C@H](Cc1ccccc1)O[*:1])[*:2]].P.[meA].V}|CHEM1{[C=CCCC[C@H](O[*:2])C(C)(C)C(=O)[*:1]]}$PEPTIDE1,CHEM1,1:R1-1:R1|PEPTIDE1,CHEM1,6:R2-1:R2$$$V2.0), the H-460 cytotoxicity is reported as “no appreciable H-460 cytotoxicity”.

Same assay, conditions: H-460 human lung cancer cells
viequeamide A3 was tested, and the IC50 was 1980 nM. Work on viequeamide A2 yielded an IC50 of 620 nM.
